From ChEMBL document CHEMBL1201862, “PubChem BioAssay data set” (2004) come the findings set out here.

Assay in all cases: NCI-60 cell line screen, 48 h
Assay [1] deals with Hs-578T.
The test system of assay [2] is OVCAR-8.
Assay [3] concerns HOP-92.
Assay [4] relates to HT-29.
Assay [5] relates to NCI/ADR-RES.
The test system of assay [6] is OVCAR-3.
For assay [7], the system named is HOP-62.
The test system of assay [8] is SK-MEL-2.
The subject of assay [9] is A498.
Assay [10] deals with HCT-116.
The test system of assay [11] is RXF 393.
The test system of assay [12] is HCC 2998.
In assay [13] the test system is EKVX.
Assay [14] has as its system A549.
Assay [15] deals with CCRF-CEM.
Assay [16] deals with HL-60.
Assay [17] deals with SF-268.
The subject of assay [18] is KM12.
The test system of assay [19] is RPMI-8226.
Assay [20] has as its system NCI-H226.

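Test compounds were applied to cells in 96-well plates for 48 hours at 5 doses. Abbreviation: GI50, concentration required for 50% inhibition of growth.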 Calls of active or inactive are those of the source. Rule as the data show it: active = GI50 up to about 1.1 µM and inactive = higher.

As for `COc1ccc2c(c1)c1c(C)c3cnccc3c(C)c1n2CCCN`, the GI50 is 0.277 µM (active) in [1]; 0.178 µM (active) in assay [2]; 0.0968 µM (active) in assay [3]; 0.117 µM (active) in [4]; 0.273 µM (active) in [5]; 0.453 µM (active) in assay [6]. For the same compound, the GI50 in assay [7] was 0.444 µM (active); in assay [8], 0.401 µM (active); in [9], 0.451 µM (active); in assay [10], 0.0556 µM (active); in assay [11] it was 0.05 µM (active); in assay [12], 0.457 µM (active). In addition, the GI50 in assay [13] is 0.307 µM (active); in [14], 0.296 µM (active).

With `O=P1(c2ccccc2)C2=CCC=CC2C(c2ccccc2)N1Cc1ccccc1` (configuration not stated), the GI50 in [1] is 19 µM (inactive); in [2], 19.6 µM (inactive); in [15], 15.5 µM (inactive); in assay [3], 12.4 µM (inactive); in [4] it was 11.6 µM (inactive); in assay [5], 14.5 µM (inactive). In addition, the GI50 in [16] was 20.4 µM (inactive); in assay [7], 19.6 µM (inactive); in [17], 14.7 µM (inactive); in assay [8], 15.5 µM (inactive); in assay [18], 12.9 µM (inactive); in assay [10] it was 15.2 µM (inactive). The GI50 in assay [19] is 13.3 µM (inactive); in assay [13] it was 14 µM (inactive); in [14] it was 14.7 µM (inactive).

With `CCOC(=O)c1nc2cc(C(F)(F)F)ccc2nc1Oc1ccc(OC)cc1`, the GI50 was > 100 µM (inactive) in [1]; > 100 µM (inactive) in assay [2]; 66.2 µM (inactive) in assay [15]; > 100 µM (inactive) in assay [3]; > 100 µM (inactive) in [5]; > 100 µM (inactive) in assay [16]. Further, the GI50 in [6], in [17], in assay [8], in [20], in assay [18] and in [10] was > 100 µM (inactive) each time. In addition, the GI50 in [11] was 50.9 µM (inactive); in assay [19], 45.4 µM (inactive); in [12], > 100 µM (inactive); in [13], > 100 µM (inactive); in [14], > 100 µM (inactive).

For `Cc1sc2nc3n(c(=O)c2c1C)N=CN(c1ccc(F)cc1)C3`, the GI50 is 22.4 µM (inactive) in assay [1]; 65.6 µM (inactive) in [2]; > 100 µM (inactive) in assay [15]; 24.2 µM (inactive) in assay [3]; > 100 µM (inactive) in [4]; > 100 µM (inactive) in assay [5]. In addition, the GI50 in assay [6] is > 100 µM (inactive); in assay [7], 23.8 µM (inactive); in [17], 81.7 µM (inactive); in [8] it was > 100 µM (inactive); in assay [20], > 100 µM (inactive); in [9], 26.9 µM (inactive). Moreover, the GI50 in assay [18] is > 100 µM (inactive); in [10], 23.8 µM (inactive); in assay [11], > 100 µM (inactive); in assay [19], > 100 µM (inactive); in assay [12], 59.6 µM (inactive); in assay [13], > 100 µM (inactive). Moreover, the GI50 in assay [14] was 43.9 µM (inactive).

As for `Cc1cc(C)c2c(O)cc(-c3ccc(F)cc3)nc2n1`, the GI50 was 69 µM (inactive) in assay [1]; 76.7 µM (inactive) in [2]; 26.7 µM (inactive) in assay [15]; 29.9 µM (inactive) in assay [3]; 39.2 µM (inactive) in assay [4]; 47.6 µM (inactive) in [5]. In addition, the GI50 in assay [7] was > 100 µM (inactive); in assay [17] it was 42.1 µM (inactive); in assay [8], 38.7 µM (inactive); in assay [20], 35.6 µM (inactive); in assay [9], 27.4 µM (inactive); in assay [18], 20.7 µM (inactive). For the same compound, the GI50 in [19] was 24.8 µM (inactive); in assay [12], 31.3 µM (inactive); in [13], 48.5 µM (inactive); in assay [14], 44.6 µM (inactive).

On to `O=C(Sc1c(-c2ccccc2)c(=O)n(-c2ccccc2)c(=S)n1-c1ccccc1)c1ccccc1`, for which the GI50 in assay [1] is 33.7 µM (inactive); in [2], 99.3 µM (inactive); in assay [15], 15.8 µM (inactive); in assay [3] it was 32.1 µM (inactive); in assay [4], 57.9 µM (inactive); in [5], 75 µM (inactive). For the same compound, the GI50 in assay [16] was 33.2 µM (inactive); in [6], > 100 µM (inactive); in assay [7] it was > 100 µM (inactive); in [17] it was > 100 µM (inactive); in [8], > 100 µM (inactive); in assay [20], > 100 µM (inactive). The GI50 in assay [18] is > 100 µM (inactive); in assay [10], 56 µM (inactive); in assay [19], 41.8 µM (inactive); in assay [13], > 100 µM (inactive); in [14], > 100 µM (inactive).

Turning to `CC(CO)(CO)Nc1ncnc2ccccc12`, the GI50 in assay [1], in assay [2], in assay [15], in assay [3], in [4] and in [5] was > 100 µM (inactive) throughout. Besides, the GI50 in assay [6], in assay [7], in assay [17], in assay [8], in assay [20] and in assay [9] was > 100 µM (inactive) in each case. In addition, the GI50 in assay [18] is > 100 µM (inactive); in [10], > 100 µM (inactive); in assay [11] it was > 100 µM (inactive); in assay [12], > 100 µM (inactive); in assay [13], 66.8 µM (inactive); in assay [14], > 100 µM (inactive).

For `O=C1N/C(=N/N=C\c2ccccc2)N/C1=C/c1ccc(Cl)cc1`, the GI50 in [1] is 20.5 µM (inactive); in [2], 21.7 µM (inactive); in assay [4] it was 33 µM (inactive); in assay [5], 23.2 µM (inactive); in assay [6], 17.4 µM (inactive); in assay [7], 17.1 µM (inactive). Moreover, the GI50 in assay [17] was 22.2 µM (inactive); in [8] it was 26.5 µM (inactive); in [20], 15.5 µM (inactive); in assay [18], 27.1 µM (inactive); in assay [10], 26.9 µM (inactive); in assay [11], 21.2 µM (inactive). The GI50 in assay [19] is 20 µM (inactive); in assay [12], 15.9 µM (inactive); in assay [13] it was 19.4 µM (inactive); in [14], 25.6 µM (inactive).

In the case of `COc1ccc(C2OC[C@H]3O[C@@H](OCc4ccccc4)[C@H](O)[C@@H](O)[C@@H]3O2)cc1` (some centres not stated), the GI50 in [1] was 55.5 µM (inactive); in assay [2] it was > 100 µM (inactive); in assay [15], 52.7 µM (inactive); in [3], 35.8 µM (inactive); in assay [4] it was > 100 µM (inactive); in assay [5] it was > 100 µM (inactive). Besides, the GI50 in [6] is > 100 µM (inactive); in assay [7], > 100 µM (inactive); in assay [17], > 100 µM (inactive); in [8], > 100 µM (inactive); in assay [20], 23.2 µM (inactive); in assay [9], > 100 µM (inactive). The GI50 in assay [10] was > 100 µM (inactive); in [11], > 100 µM (inactive); in assay [19] it was 76.9 µM (inactive); in [12], > 100 µM (inactive); in assay [13], 68.5 µM (inactive); in assay [14], > 100 µM (inactive).

For the compound `COc1cc(C2SCC(=O)N2c2cc(Cl)c(Cl)cc2Cl)cc(OC)c1OC` (configuration not stated), the GI50 in assay [1] was 99.8 µM (inactive); in assay [2], 66.5 µM (inactive); in assay [15] it was 25.4 µM (inactive); in assay [3] it was 28.6 µM (inactive); in [4], 76.7 µM (inactive); in [5] it was 34.4 µM (inactive). Besides, the GI50 was 28.2 µM (inactive) in [16]; 22.2 µM (inactive) in assay [6]; 90.2 µM (inactive) in assay [17]; 63 µM (inactive) in [8]; 63.1 µM (inactive) in assay [20]; 63 µM (inactive) in assay [9]. In addition, the GI50 in [18] is 31.3 µM (inactive); in assay [10] it was 38.3 µM (inactive); in [19], 32.4 µM (inactive); in assay [12], 32.1 µM (inactive); in assay [13], 37.3 µM (inactive); in assay [14], 38.5 µM (inactive).

As for `O=C1CSC(c2ccc(Cl)cc2)N1c1ccc(Oc2ccc(Cl)cc2)c(Cl)c1` (configuration not stated), the GI50 in [1] was 11 µM (inactive); in assay [2], 17.5 µM (inactive); in [15], 5.46 µM (inactive); in assay [3], 15.7 µM (inactive); in [4], 18.6 µM (inactive); in [5] it was 17.4 µM (inactive). The GI50 is 11 µM (inactive) in [16]; 15 µM (inactive) in [6]; 21.3 µM (inactive) in [7]; 10.7 µM (inactive) in assay [17]; 16 µM (inactive) in assay [8]; 17.4 µM (inactive) in assay [20]. The GI50 in assay [18] is 15.7 µM (inactive); in [10] it was 15.7 µM (inactive); in assay [19], 8.95 µM (inactive); in assay [12] it was 17.2 µM (inactive); in assay [13], 13.7 µM (inactive); in assay [14], 16.2 µM (inactive).

For `N#Cc1c2ccc([N+](=O)[O-])cc2c(=O)n2c1sc1ccccc12`, the GI50 in [1] was 48 µM (inactive); in assay [2], 35.2 µM (inactive); in [15], 7.29 µM (inactive); in assay [3], 13.5 µM (inactive); in assay [4], 33.7 µM (inactive); in [5] it was 18.4 µM (inactive). Besides, the GI50 in assay [16] is 19.3 µM (inactive); in [17], 56.2 µM (inactive); in [8] it was 17.3 µM (inactive); in [20], 17 µM (inactive); in [9] it was 13.5 µM (inactive); in [18], 31.6 µM (inactive). In addition, the GI50 in assay [10] is 11.1 µM (inactive); in [19] it was 9.93 µM (inactive); in assay [12], 8.05 µM (inactive); in [14], 12.2 µM (inactive).
